Experimental data: patent US20260137820A1, “TRIFUNCTIONAL COMPOUND AND USE THEREOF” (PEKING UNIVERSITY, priority 2022, published 2026)

Legend:
HT-1080-FAP tumor = assay: PET/CT imaging in HT-1080-FAP tumor-bearing mouse model; type: in vivo; settings: ^68Ga label, 18.5 MBq via tail vein, p<0.005
Method: Mouse model: Nu/Nu mice (SPF grade) were purchased from Beijing Charles River Laboratories (China) and injected subcutaneously with HT-1080-FAP cells to construct a tumor model with high FAP expression.
All PET/CT scans were carried out on Mediso nanoScan® PET 122S small animal PET/CT.
After a certain number of HT-1080-FAP tumor mice were taken and injected via the tail vein with 7.4-18.5 MBq of ^68Ga/^86Y-FAPI-04 (control) and ^68Ga/^86Y-FAPI-CB series molecules at specified time points (Note: the injection of the control and investigation molecules was separated apart by at least five half-lives of the nuclide to ensure that the radioactivity of the previous probe had almost completely decayed and was essentially completely metabolized), imaging was carried out at specified time points. In some examples, the mice were anesthetized and then sacrificed by neck breaking at a certain time point. Organs were dissected and taken for radioactivity measurement.
A ^68Ge-^68Ga generator was eluted with 5 mL of 0.6 M high-purity hydrochloric acid to obtain a Ga-68 hydrochloric acid solution. 1 mL of the Ga-68 solution after elution was taken, and 100 μL of 3 M sodium hydroxide and 130 μL of 3M sodium acetate were added to adjust the acidity to a final pH of 4.0. 12 μg of FAPI-CB-00 compound was added, and the reaction mixture was heated to 70° C. and maintained for 20 min. […]

Human FAP Protein = biological target: T1, Human FAP Protein (Homo sapiens, UniProt Q12884); assay: Surface plasmon resonance, multi-cycle mode; type: binding; settings: SPR multi-cycle
T1 construct: His; purchased Novoprotein (China)
T1 sequence (Q12884 1-760): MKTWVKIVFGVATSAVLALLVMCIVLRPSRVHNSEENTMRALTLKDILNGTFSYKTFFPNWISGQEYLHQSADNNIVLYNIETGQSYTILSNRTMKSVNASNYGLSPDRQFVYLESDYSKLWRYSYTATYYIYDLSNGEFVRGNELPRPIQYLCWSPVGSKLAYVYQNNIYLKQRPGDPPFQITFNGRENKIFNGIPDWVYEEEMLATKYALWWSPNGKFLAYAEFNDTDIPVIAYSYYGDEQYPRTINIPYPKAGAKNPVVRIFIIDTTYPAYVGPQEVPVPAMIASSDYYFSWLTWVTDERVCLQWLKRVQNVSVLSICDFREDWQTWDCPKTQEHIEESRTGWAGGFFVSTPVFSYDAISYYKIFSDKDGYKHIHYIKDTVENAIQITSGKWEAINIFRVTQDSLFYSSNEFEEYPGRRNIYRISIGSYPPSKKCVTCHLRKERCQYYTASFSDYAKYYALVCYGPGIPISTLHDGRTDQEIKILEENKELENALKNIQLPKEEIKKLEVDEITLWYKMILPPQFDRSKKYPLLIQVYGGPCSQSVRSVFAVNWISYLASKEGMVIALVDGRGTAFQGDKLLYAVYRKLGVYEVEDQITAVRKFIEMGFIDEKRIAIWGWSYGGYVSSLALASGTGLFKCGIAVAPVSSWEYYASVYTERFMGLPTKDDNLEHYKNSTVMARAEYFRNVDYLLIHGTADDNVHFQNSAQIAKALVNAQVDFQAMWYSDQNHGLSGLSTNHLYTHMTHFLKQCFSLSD
Method: According to US Pharmacopeia USP43 IMMUNOLOGICAL TEST METHODS-SURFACE PLASMON RESONANCE<1105> and Chinese Pharmacopoeia 2020, Volume IV, Surface plasmon resonance method, Label-free Immunochemistry (IV), 3429 Immunochemistry, General Rule, a surface plasmon resonance experiment was carried out.
A surface plasma chromatograph from Cytiva was used for measurement. Before protein injection, 400 mM condensing agent 1-ethyl-(3-dimethylaminopropyl)carbodiimide hydrochloride and 100 mM N-hydroxysuccinimide were mixed, and a CM5 sensor chip was activated with this mixture for 420 seconds at a flow rate of 10 μL/min. 50 μg/mL protein was then injected into an Fc2 sample channel at a flow rate of 10 μL/min to achieve a protein immobilization level of about 8000-15000 RU. In the control group, no protein was injected. Subsequently, the unreacted chip was blocked with 1M ethanolamine hydrochloride-NaOH at a flow rate of 10 μL/min for 420 seconds.
Different gradient solutions were injected into channels Fc1-Fc2 at a flow rate of 30 μL/min, followed by a 60-second binding phase and a 90-second dissociation phase, and data were collected.

## N#C[C@@H]1CC(F)(F)CN1C(=O)CNC(=O)c1ccnc2ccc(OCCCN3CCN(C(=O)[C@H](CCCCNC(=O)c4ccc(OS(=O)(=O)F)cc4)NC(=O)CN4CCN(CC(=O)O)CCN(CC(=O)O)CCN(CC(=O)O)CC4)CC3)cc12 [FAPI-CB-01]
HT-1080-FAP tumor
  improvement of maximum standard tumor uptake value (SUVmax) compared with FAPI-04: about 2 times
Human FAP Protein
  affinity compared with FAPI-04: improved by approximately two orders of magnitude
  binding rate compared with FAPI-04: significantly increased
  dissociation rate compared with FAPI-04: decreased
Human FAP Protein; 1:1 binding model
  Kd: 4.62 pM
  Rmax (maximum theoretical analyte binding capacity): 29.3 RU
  kd: 4.79e-05 s⁻¹
Human FAP Protein; 1:1 binding model, read-out: ka
  kon: 1.04e+07 M⁻¹ s⁻¹
